Drawing on PubChem BioAssay (NCI), this text covers TGI and GI50 for 17 molecules.

Test systems include SK-MEL-28 melanoma; M14 melanoma; 786-0 renal; SNB-75 CNS; TK-10 renal; SN12C renal; SK-MEL-2 melanoma; SR leukemia.
Holding throughout (test): NCI-60 cell line screen, 48 h

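How tested: cells in 96-well plates exposed to compound for 48 hours at five concentrations. GI50: concentration for 50% inhibition of growth. TGI: concentration producing complete growth inhibition.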

Take `O=C(O)c1ccccc1NS(=O)(=O)c1ccc(Cl)cc1`: the TGI with SK-MEL-28 melanoma, in the test with M14 melanoma, in the test on 786-0 renal, with SNB-75 CNS, with TK-10 renal and in the test on SN12C renal was above 100 µM throughout. The same molecule yielded a TGI in the test with SK-MEL-2 melanoma above 100 µM.

With `Cc1cc(C)c2c(c1)CSCc1cc(C)cc(C)c1-2`, the TGI is above 100 µM in the test on SK-MEL-28 melanoma; 91.8 µM in the test with M14 melanoma; 47.4 µM in the test on SR leukemia; above 100 µM in the test with 786-0 renal; above 100 µM in the test with SNB-75 CNS; above 100 µM with TK-10 renal. For the same molecule, the TGI in the test with SN12C renal is above 100 µM; in the test with SK-MEL-2 melanoma, 43.9 µM.

On to `Cc1cccc(-c2nc(=S)[nH][nH]2)c1`, for which the TGI in the test on SK-MEL-28 melanoma, with M14 melanoma, in the test with SR leukemia, with 786-0 renal, in the test with SNB-75 CNS and in the test on TK-10 renal was above 100 µM in each case. Moreover, the TGI in the test on SN12C renal and with SK-MEL-2 melanoma was above 100 µM throughout.

Regarding `O=C1C2C3SC(c4cc5ccccc5cc43)C2C(=O)N1c1ccccc1` (centres undefined), the TGI in the test on SK-MEL-28 melanoma is above 100 µM; in the test with M14 melanoma, above 100 µM; in the test with 786-0 renal, above 100 µM; in the test on SNB-75 CNS it was 45.4 µM; with TK-10 renal, above 100 µM; in the test on SN12C renal it was above 100 µM. In the test on SK-MEL-2 melanoma, this molecule gave a TGI above 100 µM.

With `CCN(CC)CC(C(=O)Nc1c(C)cccc1C)/C(C)=N\NC(=S)NN` (centres undefined), the TGI in the test on SK-MEL-28 melanoma, in the test with M14 melanoma, with 786-0 renal, in the test on SNB-75 CNS, in the test with TK-10 renal and with SK-MEL-2 melanoma was above 100 µM in each case.

On to `O=[N+]([O-])c1ccc(Cl)c(C2CC(c3cccc4ccccc34)=Nc3ccccc3S2=O)c1` (centres undefined), for which the TGI was 42.8 µM with SK-MEL-28 melanoma; 59.7 µM in the test with M14 melanoma; 93.1 µM in the test on SR leukemia; 28.5 µM in the test on 786-0 renal; above 100 µM in the test with SNB-75 CNS; 98.2 µM in the test with TK-10 renal. Besides, the results for the TGI in the test on SN12C renal and in the test on SK-MEL-2 melanoma were above 60.4 µM and 37.4 µM, respectively.

On to `CCC(=O)N1C(=S)SC[C@H]1C(=O)OC`, for which the TGI in the test with SK-MEL-28 melanoma, in the test on M14 melanoma, in the test with SR leukemia, with 786-0 renal, in the test with SNB-75 CNS and with TK-10 renal was above 100 µM throughout. This molecule also returned a TGI with SN12C renal above 100 µM.

For the molecule `CCOc1ccc2c(c1)[n+]([O-])c(C(N)=O)c(N)[n+]2[O-]`, the TGI in the test with SK-MEL-28 melanoma, in the test with M14 melanoma, in the test on SR leukemia, in the test with 786-0 renal, in the test on SNB-75 CNS and with SN12C renal was above 100 µM in each case. Moreover, in the test with SK-MEL-2 melanoma, the TGI is above 100 µM.

Regarding `O=c1c(-c2cccc3ccccc23)c(-c2cccc3ccccc23)c1=O`, the TGI in the test on SK-MEL-28 melanoma was above 100 µM; in the test with M14 melanoma, 8.51 µM; in the test on SR leukemia, above 32 µM; with 786-0 renal, 12.7 µM; in the test with SNB-75 CNS it was 4.07 µM; in the test on TK-10 renal it was above 100 µM. In addition, the TGI is above 100 µM in the test with SN12C renal and above 78.2 µM in the test with SK-MEL-2 melanoma.

`O=C1/C(=C/c2cc(O)c(O)c(O)c2)Oc2cc(O)cc(OC3OC(CO)C(O)C(O)C3O)c21` (centres undefined): the TGI in the test with SK-MEL-28 melanoma was above 100 µM; in the test with M14 melanoma it was 50.4 µM; in the test with 786-0 renal it was above 100 µM; in the test on SNB-75 CNS, above 100 µM; in the test on TK-10 renal, above 100 µM; in the test on SN12C renal it was 33 µM. The TGI with SK-MEL-2 melanoma is 47.7 µM.

For `CCN(CC)C(=O)c1cccc2c(OC)ccc(OC)c12`, the TGI with SK-MEL-28 melanoma, with M14 melanoma, with SR leukemia, in the test with 786-0 renal, in the test with SNB-75 CNS and with TK-10 renal was above 100 µM in each case. The TGI in the test with SN12C renal and with SK-MEL-2 melanoma was above 100 µM each time.

As for `O=S(=O)(c1ccccc1)N1CCC1c1ccccc1` (centres undefined), the TGI in the test on SK-MEL-28 melanoma, in the test on M14 melanoma, in the test on 786-0 renal, in the test with SNB-75 CNS, in the test with TK-10 renal and in the test on SN12C renal was above 100 µM throughout. Further, the TGI in the test on SK-MEL-2 melanoma was above 100 µM.

Regarding `CN(c1ccccc1)c1nc(=[N+](C)C)ss1`, the TGI in the test on SK-MEL-28 melanoma, with M14 melanoma, with 786-0 renal, with SNB-75 CNS, in the test on TK-10 renal and in the test on SN12C renal was above 100 µM throughout. Besides, in the test on SK-MEL-2 melanoma, the TGI was above 100 µM.

For `CN(C)C(=C1C(Br)=C(Br)C(Br)=C1Br)N(C)C`, the TGI in the test on SK-MEL-28 melanoma, with M14 melanoma, with 786-0 renal, in the test on SNB-75 CNS, in the test on TK-10 renal and with SN12C renal was above 100 µM each time. The TGI in the test with SK-MEL-2 melanoma is above 100 µM.

As for `O=S1(=O)[C@H](c2ccccc2)c2c(-c3ccccc3)sc(-c3ccccc3)c2[C@@H]1c1ccccc1`, the TGI with SK-MEL-28 melanoma, with M14 melanoma, in the test on 786-0 renal, in the test on SNB-75 CNS, in the test with TK-10 renal and with SN12C renal was above 100 µM in each case. The TGI in the test on SK-MEL-2 melanoma was above 100 µM.

Regarding `CC[O-].CC[O-].[O-]c1ccccc1C=NC12CC3CC(CC(C3)C1)C2.[O-]c1ccccc1C=NC12CC3CC(CC(C3)C1)C2.[Ti+4]`, the GI50 in the test on SK-MEL-28 melanoma was above 100 µM; in the test on M14 melanoma, above 100 µM; in the test with SR leukemia, 29.2 µM; with 786-0 renal, above 100 µM; in the test on TK-10 renal it was above 100 µM; in the test on SN12C renal it was 86.4 µM. The GI50 in the test on SK-MEL-2 melanoma was 35.8 µM. Also, the TGI in the test on SK-MEL-28 melanoma, in the test with M14 melanoma, in the test on SR leukemia, in the test with 786-0 renal, in the test on TK-10 renal and with SN12C renal was above 100 µM throughout. In the test on SK-MEL-2 melanoma, this molecule gave a TGI above 100 µM.

For `CC1COS(=O)N1c1ccccc1` (centres undefined), the TGI with SK-MEL-28 melanoma, with M14 melanoma, in the test on 786-0 renal, in the test with SNB-75 CNS, with TK-10 renal and with SK-MEL-2 melanoma was above 100 µM in each case.
